Results on one compound are retold here after patent US8338624B2, “Isoflavone derivatives and uses thereof” (Yeda Research and Development Co., Ltd., priority 2007, dated 2012).

Assay [1] concerns Human umbilical vascular smooth muscle cells (VSMC). The experiment in a line: DNA synthesis by [3H]-thymidine incorporation, normal VSMC. It is filed as cell-based. The conditions noted are these: compound at 3 μM. As for the experimental part: Human umbilical vascular smooth muscle cells (VSMC) sensitive to estrogen, were grown in culture as described above, and used only at passages 1-3, when expression of smooth muscle actin was clearly demonstrable (Somjen et al. 2000). The ratio of the expression of mRNA for ERα to ERβ was 2.7:1.
(§1) [^3H]-Thymidine incorporation into DNA was used for the assessment of the various effects (proliferative or inhibitory) of various isoflavones, isoflavone derivatives and known cytotoxic drugs in the above-mentioned cells. Cells were grown until subconfluence using conditions described in Somjen et al. (Somjen et al., 1998) and then treated with various agents for 24 or 48 h as indicated. At the end of incubation, [^3H]-thymidine was added for two hours. Cells were then treated with 10% ice-cold trichloroacetic (TCA) for 5 min and washed twice with 5% TCA and then with cold ethanol. The cellular layer was dissolved in 0.3 ml of 0.3 M NaOH, aliquots were taken for counting radioactivity, and [^3H]-thymidine incorporation into DNA was calculated.
(In general: Dividing cells build labelled thymidine or BrdU into new DNA.)

Assay [2] has as its system H295R adrenocarcinoma cells. Kind of assay: DNA synthesis by [3H]-thymidine incorporation, H295R cells. Type of assay: cell-based, human. How it is done:
(§2) Cells were cultured in MEM supplemented with 10% FCS and antibiotics. Cells were grown to subconfluence and then treated with various hormones or agents as described by Somjen et al. (Somjen et al., 1998). The cells were characterized in terms of expression of mRNAs for estrogen […] by real time PCR, and the results are summarized in Table 1. N87, 320DM and H295R cells expressed mRNAs for both ERs. The ratio of ERα to ERβ was 1:8.5, 1:30 and 1:1.8 in N87, 320DM and H295R cells, respectively. Ovarian A2780 and prostate C4-24 cells expressed mainly mRNA for ERβ, and the ratio of ERβ to ERα was 300:1 and 70:1, respectively. MLS ovarian cells expressed mRNA only for ERβ. The ratio of ERα to ERβ in T47D cells has been reported to be 9:1.
as §1

Assay [3] concerns 320DM human colon cancer cells. Kind of assay: DNA synthesis by [3H]-thymidine incorporation, 320DM cells. Type of assay: cell-based. How it is done:
as §2
as §1, with “(Somjen et al., 1998) and then treated with various agents for 24 or 48 h as indicated.” left out

Assay [4] deals with human prostate C4-2B cancer cells. Kind of assay: DNA synthesis by [3H]-thymidine incorporation, C4-2B cells. Type of assay: cell-based. How it is done:
as §2, §1

Assay [5] deals with A2780 ovarian cancer cells. The experiment in a line: DNA synthesis by [3H]-thymidine incorporation, A2780 cells. It is filed as cell-based, human. How it is done:
as §2, §1

The test system of the next assay is 320DM colon xenografts. Kind of assay: 320DM colon xenografts in nude mice. The conditions noted are these: 320DM xenografts, 8 ip daily 230 μg, 9 injections within 11 days. Type of assay: in vivo. An excerpt:
Female CD1 nude mice (8-week old, ˜30 g) were housed and handled with free access to food and water in the animal facility according to the guidelines (1996) of the Institutional Animal Care and Use Committee of the Weizmann Institute of Science, Rehovot, Israel.
Thirty female CD-1 nude mice were inoculated sc with 2×10^6 320DM human colon cancer cells. Two weeks later, 13 mice that developed palpable tumors were divided into two groups: control (5 mice) and treatment (8 mice). Each mouse of the treatment group received daily intra-peritoneal (ip) injections of compound 8 (230 μg in 70 μl of propylene glycol:PBS (20:80)) and the control mice received only propylene glycol:PBS. Each treated mouse received 9 injections within 11 days. The tumors were measured with calipers every other day during 12 days in two dimensions, length (a) and width (b), and tumor area was calculated using the formula: r^2×3.14, where r=a/2+b/2/2. The tumor area on Day 0 was taken as 100%.

Assay [6] has as its system T47D mammary cancer cells. The experiment in a line: DNA synthesis by [3H]-thymidine incorporation, T47D cells. Type of assay: cell-based, human. The conditions noted are these: Homo sapiens. How it is done: as §2, §1

Turning to `CC(C)(C)OC(=O)NCCCCCCNC(=O)CCCc1oc2cc(O)cc(O)c2c(=O)c1-c1ccc(O)cc1` [Compound 8, 2-[3-[N-[6-(tert-Butoxycarbonyl)-aminohexyl]]-caboxamidopropyl]-5,7,4′-trihydroxyisoflavone], the “DNA synthesis, ratio experimental/control (E/C)” value in assay [1] is 0.78 ± 0.1; in assay [2] (compound at 3 μM), 0.6 ± 0.14; in assay [3] (compound at 3 μM), 0.2 ± 0.09; in assay [4] (compound at 0.3 μM) it was 0.75 ± 0.07; in assay [5] (compound at 3 μM) it was 1.12 ± 0.19. In addition, the inhibition at 3 µM in assay [2] (Homo sapiens, NCI-H295R, at 3 μM, read-out: inhibition of DNA synthesis / growth) lay within 40 to 45%. Moreover, the “effect on DNA synthesis / growth” value in assay [3] (30 to 3000 nM) is “significant growth inhibitory effect”. For the same compound, the “inhibition of DNA synthesis” value in assay [4] (at 30 nM and 300 nM) is 10-15%. In assay [5] (at 3 μM), the “effect on DNA synthesis” value is given as “had no effect”. In the assay on 320DM colon xenografts, the “effect on growth of tumors” value is on record as “slowed down the growth of the tumors”. Moreover, the inhibition at 10 µM in assay [6] was 24 to 40%.
